Test results: patent publication US10993957B2 (NuCana plc, priority 2011, dated 2021)
Where two headings read alike, the source gives them in different places.

What was measured:
[1] = test system: L1210/0; assay: Cytostatic assay, L1210/0 cells; type: cell-based, murine; settings: for IC50: read-out: IC50 L1210/0
From the text: (§1) The cell lines employed were L1210/0 (a leukemia cell line), FM3A/0 (a breast cancer cell line), Cem/0 (an acute lymphoblastic leukemia cell line) and HeLa (a cervical cell line).

[2] = test system: L1210/TK^−; assay: Cytostatic assay, thymidine kinase-deficient L1210/TK^− cells; type: cell-based, murine; settings: for IC50: Table 6, read-out: IC50 L1210/TK^−; for CC50: L1210, Table 1, read-out: CC50 L1210/TK^−
[3] = test system: Cem/0; assay: Cytostatic assay, CEM/0 cells; type: cell-based, human; settings: for IC50: Table 6, read-out: IC50 Cem/0; for CC50: Table 1, read-out: CC50 Cem/0
From the text: as §1

[4] = test system: Cem/TK^−; assay: Cytostatic assay, thymidine kinase-deficient CEM/TK^− cells; type: cell-based, human; settings: for IC50: Table 6, read-out: IC50 Cem/TK^−; for CC50: Table 1, read-out: CC50 Cem/TK^−
[5] = test system: HeLa; assay: Cytostatic assay, HeLa cells; type: cell-based; settings: for IC50: Table 6, read-out: IC50 HeLa; for CC50: Table 1, read-out: CC50 HeLa
From the text: as §1

[6] = test system: HeLa/TK^−; assay: Cytostatic assay, HeLa/TK^− cells; type: cell-based; settings: for IC50: Table 6, read-out: IC50 HeLa/TK^−; for CC50: Table 1, read-out: CC50 HeLa/TK^−
From the text: as §1

[7] = test system: L1210.Hyor; assay: Cytostatic assay, Mycoplasma hyorhinis-infected L1210 cells
From the text: Murine leukaemia L1210/0 and human T-lymphocyte CEM/0 cells were obtained from the American Type Culture Collection (ATCC) (Rockville, Md.). Human glioblastoma U87 cells were kindly provided by Dr. E. Menue (Institut Pasteur, Paris, France). […] S. Eriksson (currently at Uppsala University, Uppsala, Sweden) and Prof A. Karlsson (Karolinska Institute, Stockholm, Sweden). […] All cells were maintained in Dulbecco's modified Eagle's medium (DMEM) (Invitrogen, Carlsbad, Calif.) with 10% foetal bovine serum (FBS) (Biochrom AG, Berlin, Germany), 10 mM Hepes and 1 mM Sodium Pyruvate (Invitrogen). Cells were grown at 37° C. in a humidified incubator with a gas phase of 5% CO2.
Monolayer cells (U87 and U87.Hyor) were seeded in 48-well microtiter plates (Nunc™, Roskilde, Denmark) at 10,000 cells/well. After 24 hours, an equal volume of fresh medium containing the test compounds was added. On day 5, cells were trypsinized and counted in a Coulter counter (Analis, Suarlée, Belgium). Suspension cells (L1210/0, L1210/TK^−, L1210.Hyor, CEM/0, CEM/TK^−) were seeded in 96-well microtiter plates (Nunc™) at 60,000 cells/well in the presence of a given amount of the test compounds. The cells were allowed to proliferate for 48 h (L1210) or 72 hours (CEM) and were then counted in a Coulter counter.
Samples were also assayed for their % retention of activity in mycoplasma infected cells.
The L1210/0 cell cultures were infected with the mycoplasma species M. hyorhinis (cells designated: L1210.Hyor).

[8] = read-out: IC50 L1210.Hyor, Table 7
[9] = Mus musculus, L1210/0, Table 1, read-out: CC50 L1210/0
[10] = Mus musculus, L1210, read-out: IC50 L1210.Hyor

Compound | IC50 ([1]; Table 6) [nM] | IC50 ([1]; Table 7) [nM] | IC50 [2] [nM] | IC50 [3] [nM] | IC50 [4] [nM] | IC50 [5] [nM] | IC50 [6] [nM] | IC50(L1210.Hyor)/IC50(L1210/0) ([7]; Table 7) | IC50 [7, 8] [nM] | CC50 [1, 9] [nM] | CC50 ([2]; Mus musculus) [nM] | CC50 ([3]; Homo sapiens, CCRF-CEM) [nM] | CC50 ([4]; Homo sapiens, CEM-TK(-)) [nM] | also measured
CCCCCCOC(=O)C(C)NP(=O)(OCC1OC(n2cc(F)c(=O)[nH]c2=O)CC1O)Oc1cccc2ccccc12 (stereo not shown) [Nap Hex Ala] | 7.2 | 3.2 ± 0.35 | 76 ± 15 | 80 ± 20 | 650 ± 340 | 39 ± 18 | 1800 ± 100 | 0.69 | 2.2 ± 0.28 | – | – | – | – | –
COC(=O)[C@H](C)NP(=O)(OC[C@H]1O[C@@H](n2cc(F)c(=O)[nH]c2=O)CC1O)Oc1ccccc1 (stereo partly drawn) [CPF 382, 5-Fluoro-2′-deoxyuridine-5′-O-[phenyl(methoxy-L-alaninyl)] phosphate, reference compound] | – | – | – | – | – | – | – | 22 | – | 25.5 | 37800 | 346 | 32700 | IC50 ([1]; Mus musculus, L1210/0, Table 6): 22 ± 7 nM; IC50 ([1]; Mus musculus, L1210/0, Table 7): 40 ± 16 nM; IC50 ([2]; Mus musculus, L1210): 41000 ± 3000 nM; IC50 ([3]; Homo sapiens, CCRF-CEM): 700 ± 370 nM; IC50 ([4]; Homo sapiens, CEM-TK(-)): 35000 ± 12000 nM; IC50 ([5]; Homo sapiens, HeLa): 280 ± 140 nM; IC50 ([6]; Homo sapiens, HeLa): 4700 ± 400 nM; IC50 [7, 10]: 870 ± 280 nM
CC(C)CC(NP(=O)(OCC1OC(n2cc(F)c(=O)[nH]c2=O)CC1O)Oc1cccc2ccccc12)C(=O)OCc1ccccc1 (stereo not shown) [Nap Bn Leu] | 28 ± 4 | 29 ± 2.1 | 1500 ± 600 | 130 | 30000 ± 6000 | 80 ± 22 | 9400 ± 1400 | 1.7 | 48 ± 20 | – | – | – | – | –
O=C(OCc1ccccc1)C(Cc1ccccc1)NP(=O)(OCC1OC(n2cc(F)c(=O)[nH]c2=O)CC1O)Oc1ccccc1 (stereo not shown) [Ph Bn Phe] | 36 ± 10 | 16 ± 1.4 | 39000 ± 4000 | 250 ± 20 | 11000 ± 3000 | 14 ± 7 | 12000 ± 2000 | 35 | 560 ± 23 | – | – | – | – | –
C[C@H](NP(=O)(OC[C@H]1O[C@@H](n2cc(F)c(=O)[nH]c2=O)CC1O)Oc1cccc2ccccc12)C(=O)OC1CCOCC1 (stereo partly drawn) [CPF 580, 5-Fluoro-2′-deoxyuridine-5′-O-[1-naphthyl-(tetrahydropyroxy-L-alaninyl)]phosphate] | – | – | – | – | – | – | – | 11.7 | – | 38 ± 14 | 27000 ± 6000 | 110 ± 20 | 43000 ± 12000 | CC50 ([1]; Mus musculus, L1210/0, Table 2, mycoplasma negative cells, read-out: CC50 L1210): 48 nM; IC50 ([1]; Mus musculus, L1210/0, Table 6): 38 ± 14 nM; IC50 ([1]; Mus musculus, L1210/0, Table 7): 41 ± 2.8 nM; IC50 ([2]; Mus musculus, L1210): 27000 ± 6000 nM; IC50 ([3]; Homo sapiens, CCRF-CEM): 110 ± 20 nM; IC50 ([4]; Homo sapiens, CEM-TK(-)): 43000 ± 12000 nM; CC50 ([5]; Homo sapiens, HeLa): 130 ± 40 nM; IC50 ([5]; Homo sapiens, HeLa): 130 ± 40 nM; CC50 ([6]; Homo sapiens, HeLa): 15000 ± 7000 nM; IC50 ([6]; Homo sapiens, HeLa): 15000 ± 7000 nM; % Retention ([7]; CC50 L1210 × 100 ÷ CC50 L1210/Hyor): 12%; CC50 ([7]; Mus musculus, L1210, read-out: CC50 L1210/Hyor): 410 nM; IC50 [7, 10]: 480 ± 110 nM
CSCCC(NP(=O)(OCC1OC(n2cc(F)c(=O)[nH]c2=O)CC1O)Oc1cccc2ccccc12)C(=O)OCc1ccccc1 (stereo not shown) [Nap Bn Met] | 72 ± 1 | 54 ± 13 | 1900 ± 200 | 190 ± 100 | 11000 ± 1000 | 87 ± 17 | 8300 | 3.7 | 200 ± 98 | – | – | – | – | –
CC(C)OC(=O)[C@H](C)NP(=O)(O)OCC1OC(n2cc(F)c(=O)[nH]c2=O)CC1O (stereo partly shown) [CPF 438, reference compound] | – | – | – | – | – | – | – | – | – | 120 ± 20 | 51000 ± 9000 | 2100 ± 600 | 32000 ± 2000 | CC50 ([5]; Homo sapiens, HeLa): 3700 ± 500 nM; CC50 ([6]; Homo sapiens, HeLa): 72000 nM
